Results on 23 molecules are retold here after patent US9884063B2, “Amido-substituted azole compounds” (Bayer Pharma Aktiengesellschaft, priority 2014, dated 2018).

In test [1] the test system is wildtype Wnt signaling cascade. Put plainly: HEK293 TOP Assay (Super TopFlash luciferase reporter, Wnt-3a stimulated). Format: cell-based. Conditions: Homo sapiens, HEK293, 16 h, HEK293 TOP reporter cell line, Wnt-3a at EC50, 16 hours incubation, compound dilution series 50 μM to 15 nM. Summed up:
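HEK293 cells stably carrying Super TopFlash (TOP) or FOP reporter, stimulated with recombinant human Wnt-3a (2500–5 ng/ml, two-fold steps). Both lines incubated in parallel with compound from 50 μM to 15 nM (3.16-fold) in CAFTY buffer pH 7.4 with 2 mM Ca2+ and 0.01% BSA; selectivity judged TOP vs FOP.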

The next test addresses T1, TNKS2 (Homo sapiens, UniProt Q9H2K2).
T1 sequence (Q9H2K2 1-1166): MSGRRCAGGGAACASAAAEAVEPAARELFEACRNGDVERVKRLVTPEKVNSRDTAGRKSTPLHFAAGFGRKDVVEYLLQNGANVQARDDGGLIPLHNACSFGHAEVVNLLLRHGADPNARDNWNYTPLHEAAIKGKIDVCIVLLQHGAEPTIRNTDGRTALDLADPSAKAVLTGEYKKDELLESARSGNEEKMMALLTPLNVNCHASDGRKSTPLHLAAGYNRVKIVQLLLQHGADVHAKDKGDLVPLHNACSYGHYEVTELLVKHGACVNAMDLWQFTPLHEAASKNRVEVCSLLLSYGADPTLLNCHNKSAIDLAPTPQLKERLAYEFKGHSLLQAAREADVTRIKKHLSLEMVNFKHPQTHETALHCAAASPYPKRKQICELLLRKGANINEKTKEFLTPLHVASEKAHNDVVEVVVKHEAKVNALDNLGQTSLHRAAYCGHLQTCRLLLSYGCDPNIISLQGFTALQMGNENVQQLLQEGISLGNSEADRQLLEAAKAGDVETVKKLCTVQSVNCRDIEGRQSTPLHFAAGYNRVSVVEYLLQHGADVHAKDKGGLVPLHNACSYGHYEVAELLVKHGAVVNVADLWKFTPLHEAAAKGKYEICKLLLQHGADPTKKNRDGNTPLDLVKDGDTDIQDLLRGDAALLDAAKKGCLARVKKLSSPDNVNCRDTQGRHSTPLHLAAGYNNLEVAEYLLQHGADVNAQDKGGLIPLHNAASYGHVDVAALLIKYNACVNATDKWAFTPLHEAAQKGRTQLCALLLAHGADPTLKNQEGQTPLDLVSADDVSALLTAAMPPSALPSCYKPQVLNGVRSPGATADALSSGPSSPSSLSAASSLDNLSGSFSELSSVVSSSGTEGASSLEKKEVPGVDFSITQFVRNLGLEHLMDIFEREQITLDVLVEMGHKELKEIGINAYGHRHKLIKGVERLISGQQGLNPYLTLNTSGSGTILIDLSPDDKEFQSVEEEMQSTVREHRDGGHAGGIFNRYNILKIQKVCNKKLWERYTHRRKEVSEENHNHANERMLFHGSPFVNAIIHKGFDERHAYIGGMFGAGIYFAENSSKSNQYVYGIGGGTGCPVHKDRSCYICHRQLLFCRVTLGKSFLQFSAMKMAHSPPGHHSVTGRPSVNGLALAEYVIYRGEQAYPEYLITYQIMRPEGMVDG
Put plainly: Modified TNKS2 Assay 2 (auto-parsylation, [3H]-NAD+ SPA). Conditions: 6 nM TNKS2, 96 well. Format: biochemical.

A value given as a limit tells only on which side of the number the result lay.

With `CNC(=O)c1nc[nH]c1C(=O)Nc1ccc(NC(=O)c2ccc(F)c(Cl)c2F)cc1` [Example 359, N^5-{4-[(3-chloro-2,4-difluorobenzoyl)amino]phenyl}-N^4-methyl-1H-imidazole-4,5-dicarboxamide], the IC50 (as a rule, the point on the concentration scale where inhibition reaches its midpoint) is 8600 nM in test [1] and over 10000 nM at TNKS2.

Take `CNC(=O)c1nc[nH]c1C(=O)Nc1ccc(NC(=O)c2cc(F)ccc2Cl)cc1` [Example 361, N^5-{4-[(2-chloro-5-fluorobenzoyl)amino]phenyl}-N^4-methyl-1H-imidazole-4,5-dicarboxamide]: the IC50 in test [1] came to 260 nM; on TNKS2, 100 nM.

Consider `CNC(=O)c1nc[nH]c1C(=O)Nc1ccc(NC(=O)c2cc(C)ccn2)cc1` [Example 363, N^4-methyl-N^5-(4-{[(4-methylpyridin-2-yl)carbonyl]amino}phenyl)-1H-imidazole-4,5-dicarboxamide], for which the IC50 was 50000 nM in test [1] and over 10000 nM against TNKS2.

In the case of `CNC(=O)c1nc[nH]c1C(=O)Nc1ccc(NC(=O)c2cc(F)ccc2OC)cc1` [Example 364, N^5-{4-[(5-fluoro-2-methoxybenzoyl)amino]phenyl}-N^4-methyl-1H-imidazole-4,5-dicarboxamide], the IC50 in test [1] is 50000 nM; on TNKS2, 7900 nM.

On to `CNC(=O)c1nc[nH]c1C(=O)Nc1ccc(NC(=O)c2cncc(C)c2)cc1` [Example 366, N^4-methyl-N^5-(4-{[(5-methylpyridin-3-yl)carbonyl]amino}phenyl)-1H-imidazole-4,5-dicarboxamide], for which the IC50 in test [1] was 50000 nM; at TNKS2, over 10000 nM.

As for `CNC(=O)c1nc[nH]c1C(=O)Nc1ccc(NC(=O)c2cccc(F)c2OC)cc1` [Example 367, N^5-{4-[(3-fluoro-2-methoxybenzoyl)amino]phenyl}-N^4-methyl-1H-imidazole-4,5-dicarboxamide], the IC50 in test [1] was 12400 nM; against TNKS2 it was over 10000 nM.

Turning to `CNC(=O)c1nc[nH]c1C(=O)Nc1ccc(NC(=O)c2cccc(F)c2Cl)cc1` [Example 370, N^5-{4-[(2-chloro-3-fluorobenzoyl)amino]phenyl}-N^4-methyl-1H-imidazole-4,5-dicarboxamide], the IC50 in test [1] is 4950 nM; against TNKS2, 2200 nM.

With `CNC(=O)c1nc[nH]c1C(=O)Nc1ccc(NC(=O)c2nccnc2Cl)cc1` [Example 372, N^5-(4-{[(3-chloropyrazin-2-yl)carbonyl]amino}phenyl)-N^4-methyl-1H-imidazole-4,5-dicarboxamide], the IC50 in test [1] was found to be 9700 nM; on TNKS2, 4800 nM.

As for `CNC(=O)c1nc[nH]c1C(=O)Nc1ccc(NC(=O)c2c(F)ccc(F)c2Cl)cc1` [Example 374, N^5-{4-[(2-chloro-3,6-difluorobenzoyl)amino]phenyl}-N^4-methyl-1H-imidazole-4,5-dicarboxamide], the values for the IC50 (in test [1]; at TNKS2) were 1800 nM and 1300 nM, respectively.

With `CNC(=O)c1nc[nH]c1C(=O)Nc1ccc(NC(=O)c2c(C)cccc2F)cc1` [Example 375, N^5-{4-[(2-fluoro-6-methylbenzoyl)amino]phenyl}-N^4-methyl-1H-imidazole-4,5-dicarboxamide], the results for the IC50 (in test [1]; against TNKS2) were 1120 nM and 1200 nM, respectively.

With `CNC(=O)c1nc[nH]c1C(=O)Nc1ccc(NC(=O)c2ccon2)cc1` [Example 376, N^4-methyl-N^5-{4-[(1,2-oxazol-3-ylcarbonyl)amino]phenyl}-1H-imidazole-4,5-dicarboxamide], the IC50 in test [1] was 50000 nM; at TNKS2 it was over 10000 nM.

In the case of `CNC(=O)c1nc[nH]c1C(=O)Nc1ccc(NC(=O)c2cc(F)c(F)cc2C)cc1` [Example 377, N^5-{4-[(4,5-difluoro-2-methylbenzoyl)amino]phenyl}-N^4-methyl-1H-imidazole-4,5-dicarboxamide], the figures for the IC50 (in test [1]; against TNKS2) were 950 nM and 330 nM, respectively.

For `O=C(Nc1ccc(NC(=O)c2nc[nH]c2C(=O)NCCN2CCCCC2)cc1)c1ccccc1Cl` [Example 381, N^4-{4-[(2-chlorobenzoyl)amino]phenyl}-N^5-[2-(piperidin-1-yl)ethyl]-1H-imidazole-4,5-dicarboxamide], the IC50 is 80 nM in test [1] and 20 nM against TNKS2.

As for `O=C(Nc1ccc(NC(=O)c2[nH]cnc2C(=O)NCCc2ccccc2)cc1)c1ccc(F)cc1Cl` [Example 384, N^5-{4-[(2-chloro-4-fluorobenzoyl)amino]phenyl}-N^4-(2-phenylethyl)-1H-imidazole-4,5-dicarboxamide], the IC50 in test [1] was found to be 1900 nM; against TNKS2 it was 1700 nM.

Take `O=C(Nc1ccc(NC(=O)c2[nH]cnc2C(=O)NCCc2ccccn2)cc1)c1ccc(F)cc1Cl` [Example 387, N^5-{4-[(2-chloro-4-fluorobenzoyl)amino]phenyl}-N^4-[2-(pyridin-2-yl)ethyl]-1H-imidazole-4,5-dicarboxamide]: the IC50 is 800 nM in test [1] and 150 nM against TNKS2.

Turning to `CC(C)N(CCNC(=O)c1nc[nH]c1C(=O)Nc1ccc(NC(=O)c2ccc(F)cc2Cl)cc1)C(C)C` [Example 389, N^5-{4-[(2-chloro-4-fluorobenzoyl)amino]phenyl}-N^4-{2-[di(propan-2-yl)amino]ethyl}-1H-imidazole-4,5-dicarboxamide], the IC50 was 750 nM in test [1] and 280 nM on TNKS2.

For the molecule `CC1(C)CC(NC(=O)c2nc[nH]c2C(=O)Nc2ccc(NC(=O)c3ccc(F)cc3Cl)cc2)CCO1` (stereo not shown) [Example 391, N^5-{4-[(2-chloro-4-fluorobenzoyl)amino]phenyl}-N^4-(2,2-dimethyltetrahydro-2H-pyran-4-yl)-1H-imidazole-4,5-dicarboxamide], the IC50 in test [1] stood at 670 nM; on TNKS2, 450 nM.

Regarding `CCN(CC)CCCCNC(=O)c1nc[nH]c1C(=O)Nc1ccc(NC(=O)c2ccc(F)cc2Cl)cc1` [Example 393, N^5-{4-[(2-chloro-4-fluorobenzoyl)amino]phenyl}-N^4-[4-(diethylamino)butyl]-1H-imidazole-4,5-dicarboxamide], the IC50 was 880 nM in test [1] and 750 nM against TNKS2.

For the molecule `O=C(Nc1ccc(NC(=O)c2[nH]cnc2C(=O)NCCc2ccncc2)cc1)c1ccc(F)cc1Cl` [Example 394, N^5-{4-[(2-chloro-4-fluorobenzoyl)amino]phenyl}-N^4-[2-(pyridin-4-yl)ethyl]-1H-imidazole-4,5-dicarboxamide], the IC50 in test [1] came out at 700 nM; at TNKS2 it was 60 nM.

As for `O=C(Nc1ccc(NC(=O)c2nc[nH]c2C(=O)NCC2CCOCC2)cc1)c1ccc(F)cc1Cl` [Example 397, N^5-{4-[(2-chloro-4-fluorobenzoyl)amino]phenyl}-N^4-(tetrahydro-2H-pyran-4-ylmethyl)-1H-imidazole-4,5-dicarboxamide], the IC50 in test [1] was 460 nM; against TNKS2 it was 200 nM.

For the molecule `O=C(Nc1ccc(NC(=O)c2[nH]cnc2C(=O)NCCc2cccnc2)cc1)c1ccc(F)cc1Cl` [Example 405, N^5-{4-[(2-chloro-4-fluorobenzoyl)amino]phenyl}-N^4-[2-(pyridin-3-yl)ethyl]-1H-imidazole-4,5-dicarboxamide], the IC50 in test [1] was 710 nM; on TNKS2, 100 nM.

For the molecule `CCN1CCC[C@@H]1CNC(=O)c1nc[nH]c1C(=O)Nc1ccc(NC(=O)c2ccc(F)cc2Cl)cc1` [Example 413, N^5-{4-[(2-chloro-4-fluorobenzoyl)amino]phenyl}-N^4-{[(2R)-1-ethylpyrrolidin-2-yl]methyl}-1H-imidazole-4,5-dicarboxamide], the values for the IC50 (in test [1]; at TNKS2) were 700 nM and 90 nM, respectively.

Regarding `CN1CCN(CC(C)(C)CNC(=O)c2nc[nH]c2C(=O)Nc2ccc(NC(=O)c3ccc(F)cc3Cl)cc2)CC1` [Example 415, N^5-{4-[(2-chloro-4-fluorobenzoyl)amino]phenyl}-N^4-[2,2-dimethyl-3-(4-methylpiperazin-1-yl)propyl]-1H-imidazole-4,5-dicarboxamide], the half-inhibitory concentration (IC50) worked out at 560 nM in test [1] and 80 nM against TNKS2.
